The assay has as its system female Aedes aegypti mosquitoes. The assay is described as follows: In vitro repellency against mosquitoes, treated collagen membranes over blood-filled wells. The class given is in vivo. The following applies: 20% DEET in ethanol (positive control), 25 μL on membrane; probes over 20 minutes; five replicates. As for the experimental part: A laboratory trial was conducted to evaluate the repellency of santalol against female Aedes aegypti mosquitoes using an in vitro method. A 20% DEET positive control and untreated and ethanol negative controls were also assessed for comparison purposes. Test substances were applied to prepared collagen membranes placed over heated, blood-filled wells and exposed to mosquitoes. The number of mosquitoes probing each well was recorded at two minute intervals up to 20 minutes. Female adult laboratory reared Aedes aegypti mosquitoes (susceptible) were obtained from Benzon Research in Carlisle, Pa. 250 mosquitoes were used per replicate (5 replicates per test). Adult mosquitoes were 3-8 days old. Santalol was diluted in ethanol to 2% and 5% concentrations. A positive control consisting of 20% DEET in ethanol was prepared using stock solutions. Negative controls consisted of no treatment, and ethanol-only treatment. […] The number of mosquitoes probing each membrane was recorded every two minutes for twenty minutes. […] Percent repellency was calculated for each replicate using the total number of probes with the following formula: [formula] […] Average percent repellency and standard error (SE) were calculated across all five replicates. […]

Where “and” joins values, the source holds several entries; their conditions need not be identical. Equal values may be shown once.

As to `CCN(CC)C(=O)c1cccc(C)c1` [20% DEET, N,N-Diethyl-meta-toluamide], the “Average percent repellency ± SE” value is 93.9% and 93.9 ± 2.3%.

These data come from patent US20180242591A1, “Insect Repellent” (Evolva SA, priority 2015, published 2018).
